# Test results from BindingDB's records for patent US20240083908 (Modulus Discovery, 2024).
# Biological target: Poly(ADP-ribose) glycohydrolase (Homo sapiens, UniProt Q86W56)
# Assay: PARG Activity Assay
# Description: PARG Activity Assay was performed in Streptavidin-coated 96-well plates. […] The substrate solution was added to the 96-well plate at the volume of 200 micro liter per well and incubated for 3 hours at room temperature. After the incubation, the substrate solution was discarded and assay plate was washed 4 times with 220 micro liter of PBS containing 0.1% Tween20 (PBST). […] The diluted enzyme solution was pre-incubated with compounds for 1 hour at room temperature in a 96-well plate and transferred 100 micro liter per well to the poly (ADP-ribose) substrate-coated assay plate. The plate was incubated for 1 hour at 25° C. and then washed 4 times with 220 micro liters of PBST. For the detection of non-digested poly (ADP-ribose) polymer on the plate, mouse anti-poly (ADP-ribose) antibody diluted with 0.2% BSA containing PBS was added 100 micro liters per well and incubated 1 hour at room temperature. Plate was washed 4 times with TBST and 100 micro liter of HRP-labeled anti-mouse Ig antibody was added to the wells. Plate was incubated for 30 minutes at room temperature and then washed 4 times with PBST. For the detection 100 micro liters of TMB substrate solution was added to the wells. After sufficient color development, reaction was stopped by addition of 50 micro liter of 0.2 M […].
# Chain of Poly(ADP-ribose) glycohydrolase (Q86W56 whole entry): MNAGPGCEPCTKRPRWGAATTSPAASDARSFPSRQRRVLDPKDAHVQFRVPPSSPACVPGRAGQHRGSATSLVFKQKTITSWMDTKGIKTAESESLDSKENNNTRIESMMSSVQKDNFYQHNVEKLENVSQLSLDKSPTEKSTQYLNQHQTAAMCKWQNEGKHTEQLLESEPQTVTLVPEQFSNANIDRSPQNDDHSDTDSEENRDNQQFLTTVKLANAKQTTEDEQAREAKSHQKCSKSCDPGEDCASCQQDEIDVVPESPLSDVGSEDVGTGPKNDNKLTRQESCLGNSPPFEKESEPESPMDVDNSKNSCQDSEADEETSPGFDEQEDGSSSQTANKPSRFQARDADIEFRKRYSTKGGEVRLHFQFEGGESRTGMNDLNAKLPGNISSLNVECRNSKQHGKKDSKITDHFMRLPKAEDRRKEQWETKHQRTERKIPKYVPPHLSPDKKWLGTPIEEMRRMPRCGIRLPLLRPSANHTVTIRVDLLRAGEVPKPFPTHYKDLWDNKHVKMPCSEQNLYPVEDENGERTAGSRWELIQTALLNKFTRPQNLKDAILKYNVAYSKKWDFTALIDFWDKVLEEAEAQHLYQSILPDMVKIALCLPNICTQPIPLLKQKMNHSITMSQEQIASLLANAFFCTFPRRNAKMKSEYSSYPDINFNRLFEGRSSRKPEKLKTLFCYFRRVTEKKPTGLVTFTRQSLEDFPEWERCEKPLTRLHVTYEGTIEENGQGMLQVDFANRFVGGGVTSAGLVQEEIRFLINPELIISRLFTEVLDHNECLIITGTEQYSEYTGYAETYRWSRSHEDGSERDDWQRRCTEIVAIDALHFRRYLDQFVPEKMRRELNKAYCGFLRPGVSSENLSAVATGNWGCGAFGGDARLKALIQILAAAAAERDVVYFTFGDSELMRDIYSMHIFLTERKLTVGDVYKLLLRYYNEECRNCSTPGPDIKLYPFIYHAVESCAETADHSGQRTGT
row,Compound,IC50 [nM]
1,"Cc1nc(C)c(Cn2c(=O)n(Cc3cnn(C)c3)c(=O)c3cc(S(=O)(=O)NC4(C)CC4)sc32)s1 [US20240083908, Example 25]",13
2,"Cn1cc(Cn2c(=O)c3cc(S(=O)(=O)NC4(C)CC4)sc3n(CC3CCN(CCO)CC3)c2=O)cn1 [US20240083908, Example 99]",500
3,"CN1CCC(Cn2c(=O)n(Cc3cnn(C)c3)c(=O)c3cc(S(=O)(=O)NC4(C)CC4)sc32)CC1 [US20240083908, Example 98]",5940
4,"Cn1cc(Cn2c(=O)c3cc(S(=O)(=O)NC4(C)CC4)sc3n(Cc3ccc4cncn4c3)c2=O)cn1 [US20240083908, Example 40]",4.1
5,"Cc1ncc(Cn2c(=O)c3cc(S(=O)(=O)NC4(C)CC4)sc3n(Cc3cc(C(C)C)nn3C)c2=O)s1 [US20240083908, Example 107]",70
6,"Cc1nc(C)c(Cn2c(=O)n(Cc3ccc(Cl)nc3)c(=O)c3cc(S(=O)(=O)NC4(C)CC4)sc32)s1 [US20240083908, Example 105]",50
7,"Cc1nc(C)c(Cn2c(=O)n(Cc3cnn(CCO)c3)c(=O)c3cc(S(=O)(=O)NC4(C)CC4)sc32)s1 [US20240083908, Example 104b]",120
8,"Cc1ncc(Cn2c(=O)[nH]c3sc(S(=O)(=O)NC4(C)CC4)cc3c2=O)s1 [US20240083908, Example 1]",22900
9,"Cn1cc(Cn2c(=O)c3cc(S(=O)(=O)NC4(C)CC4)sc3n(Cc3cc4c(cc3F)COC4)c2=O)cn1 [US20240083908, Example 110]",17
10,"Cn1cc(Cn2c(=O)c3cc(S(=O)(=O)NC4(C)CC4)sc3n(-c3ccc(F)cc3)c2=O)cn1 [US20240083908, Example 136]",860
11,"Cn1cc(Cn2c(=O)c3cc(S(=O)(=O)NC4(C)CC4)sc3n(Cc3ccc(OC4CC4)cc3)c2=O)cn1 [US20240083908, Example 68]",63
12,"Cn1cc(Cn2c(=O)c3cc(S(=O)(=O)NC4(C)CC4)sc3n(Cc3cnn(CCO)c3)c2=O)cn1 [US20240083908, Example 57]",20
13,"Cn1cc(Cn2c(=O)c3cc(S(=O)(=O)NC4(C)CC4)sc3n(Cc3cnc4c(c3)COC4)c2=O)cn1 [US20240083908, Example 108]",4
14,"COc1cc2c(cc1Cn1c(=O)n(Cc3cnn(C)c3)c(=O)c3cc(S(=O)(=O)NC4(C)CC4)sc31)COC2 [US20240083908, Example 111]",120
15,"CC(=O)N1CCC(n2c(=O)n(Cc3cnn(C)c3)c(=O)c3cc(S(=O)(=O)NC4(C)CC4)sc32)CC1 [US20240083908, Example 92]",230
16,"CN(C)CCN(C)c1ccc(Cn2c(=O)n(Cc3cnn(C)c3)c(=O)c3cc(S(=O)(=O)NC4(C)CC4)sc32)cc1F [US20240083908, Example 78]",111
17,"CC1(NS(=O)(=O)c2cc3c(=O)n(Cc4nc5c(s4)CCCC5)c(=O)n(Cc4ccc5c(c4)COC5)c3s2)CC1 [US20240083908, Example 106]",990
18,"Cn1cc(Cn2c(=O)c3cc(S(=O)(=O)NC4(C)CC4)sc3n(Cc3ccc4oc(CO)cc4c3)c2=O)cn1 [US20240083908, Example 64]",15
19,"CNCCN(C)c1ccc(Cn2c(=O)n(Cc3cnn(C)c3)c(=O)c3cc(S(=O)(=O)NC4(C)CC4)sc32)cc1F [US20240083908, Example 77]",70
20,"Cn1cc(Cn2c(=O)c3cc(S(=O)(=O)NC4(C#N)CC4)sc3n(Cc3ccc4c(c3)COC4)c2=O)cn1 [US20240083908, Example 100]",42
21,"Cn1cc(Cn2c(=O)c3cc(S(=O)(=O)NC4(C)CC4)sc3n(Cc3ccc4c(c3)COC4)c2=O)cn1 [US20240083908, Example 28]",10
22,"COc1cc(Cn2c(=O)n(Cc3cnn(C)c3)c(=O)c3cc(S(=O)(=O)NC4(C)CC4)sc32)ccc1F [US20240083908, Example 121]",20
23,"COCc1cc2cc(Cn3c(=O)n(Cc4cnn(C)c4)c(=O)c4cc(S(=O)(=O)NC5(C)CC5)sc43)ccc2o1 [US20240083908, Example 63]",20
24,"Cn1cc(Cn2c(=O)c3cc(S(=O)(=O)NC4(C)CC4)sc3n(Cc3ccc4c(c3)CC(=O)N4)c2=O)cn1 [US20240083908, Example 130]",3
25,"COc1ccc(Cn2c(=O)n(Cc3cnn(C)c3)c(=O)c3cc(S(=O)(=O)NC4(C)CC4)sc32)cc1 [US20240083908, Example 50]",40
26,"Cn1cc(Cn2c(=O)c3cc(S(=O)(=O)NC4(C)CC4)sc3n(Cc3ccc4cn[nH]c4c3)c2=O)cn1 [US20240083908, Example 36]",5.3
27,"CNCCC(=O)N1CCC(n2c(=O)n(Cc3cnn(C)c3)c(=O)c3cc(S(=O)(=O)NC4(C)CC4)sc32)CC1 [US20240083908, Example 95]",320
28,"Cc1ncc(Cn2c(=O)c3cc(S(=O)(=O)NC4(C)CC4)sc3n(CCCN(C)C)c2=O)s1 [US20240083908, Example 8]",630
29,"Cn1cc(Cn2c(=O)c3cc(S(=O)(=O)NC4(C)CC4)sc3n(C3CCNCC3)c2=O)cn1 [US20240083908, Example 91]",270
